Patent publication US5922319A, “Methods of treating eye conditions with human leukocyte elastase (HLE) inhibitory agents” (University of Kentucky Research Foundation, priority 1989, dated 1999)

Tested on: rabbit corneas thermally burned (corneal scarring, fibroblast proliferation, neovascularization)
Assay: Thermal corneal burn in rabbit eyes, topical eye drops for two weeks, blind histopathology (H&E)
Format: in vivo
Experimental: 26 rabbits were tranquilized with acetylpromazine maleate, 16 mg/kg intramuscularly. 2% lidocaine HCl eye drops were instilled in each eye for corneal anesthesia. Once the corneas were anesthetized, an eyelid speculum was inserted and the lids were then separated. The corneas of each eye were thermally coagulated with the tip of a battery-powered ophthalmic cautery. […] Two drops of solution A, B or C were instilled in designated treated eyes every 15 min for 6 hrs., then every 2 hrs. for 12 hrs. Following this, two eye drops of the same solutions were instilled four times a day. Daily eye examination was performed and photographs were taken. Two weeks after treatment the rabbits were sacrificed by […] intracardiac injection of T-61 ([…]). Subsequently, the rabbits, eyeballs were enucleated, the globes placed in Bounri's solution (10% formalin solution) and submitted for histopathology cell analysis. The eyes were fixed with 10% formalin solution and labeled right (R) and left (L), as appropriate sectioned and stained with H & E (hematoxylin & eosin stains). Histological sections were read by a pathologist without knowledge of the previously undertaken experimental procedure (blind test).

## COC(=O)CCC(=O)N[C@@H](C)C(=O)N[C@@H](CCCCNC(=O)OCc1ccccc1)C(=O)N1CCC[C@H]1C(=O)CN(C(=O)Sc1nnnn1-c1ccccc1)C(C)C [Compound 2, S-(1-phenyl-5-tetrazoyl)-N-[methoxysuccinyl-alanyl-(Nε -Carbobenzoxy)lysylprolylmethyl]-N-isopropyl-thiocarbamate]
Solution B, 10 μg/ml in normal saline with 1.4% w/v polyvinyl alcohol, eye drops, two weeks after corneal burn
  Microscopic description of rabbit eyes: intensity of the reaction compared with the untreated specimen: The reaction is not quite as intense
Solution C, 50 μg/ml, versus untreated eyes
  Protection against scarring due to corneal burns (magnitude): tenfold
Ophthalmic solutions B or C, rabbit corneal burn
  Overall effect of ophthalmic solutions on fibrosis, neovascularization and inflammation in corneal wound-healing: effective in reducing fibrosis, neovascularization and inflammation
